Measured values from publication PMC8608967, “KDS2010, a Newly Developed Reversible MAO-B Inhibitor, as an Effective Therapeutic Candidate for Parkinson’s Disease” (Neurotherapeutics, 2021).

Experiments:
[1] = Oral toxicity studies in cynomolgus monkeys (N217019, G217013, G218027); assay type: in vivo, cynomolgus monkey (Macaca fascicularis); conditions: cynomolgus monkey, in vivo; cynomolgus monkeys, both sexes, 4-week repeated oral dosing; read-out: No Observed Adverse Effect Level (NOAEL)
Experimental: (§1) All non-human primate studies were conducted in the Good Laboratory Practice (GLP)-level laboratory of the Korea Institute of Toxicology (KIT, Jeollabuk-do, Korea) and approved by the KIT Institutional Animal Care and Use Committee. Cynomolgus monkeys (Macaca fascicularis) were obtained from the Nafovanny captive-breeding primate facility (Dong Nai Province, Vietnam) and housed individually in stainless cages (543 W × 715L × 818H in mm) during acclimation, pre-treatment, and dosing periods. All animals were at least 24 months old. The environment of the animal room was automatically controlled according to the Standard Operating Procedures of KIT (temperature: 20–29°C, relative humidity: 30–70%, light cycle: 12 h at 300–700 Lux, ventilation: 10–20 times/h, air pressure: negative). Males and females were assigned to treatment groups in a stratified manner using the Pristima System based on most recent body weight. Clinical signs, including mortality, moribundity, general appearance, and behavioral changes, were recorded with date, time, and duration. Body weight was measured prior to the first KDS2010 dose. For oral administration, KDS2010 was dissolved in water. In total, 42 monkeys were administered KDS2010 and ultimately sacrificed for autopsy. The four studies conducted on cynomolgus monkeys are summarized in Table 1 and described in greater detail below.
(§2) In the single-dose escalation study (N118029), each male and female monkey was administered oral KDS2010 at increasing doses of 25, 50, and 100 mg/kg/day once a week. Mortality and general symptoms were observed during the trial period. Body weight was also measured. Blood was collected for hematology, coagulation, and clinical chemistry tests pre-dose (0) and 8, 15, and 22 days post-dose. After administration of 100 mg/kg/day on day 22, an autopsy was performed to observe individual macroscopic findings.
(§3) In the repeated 2-week oral administration toxicity study (G217013) for 4-week dose range finding (DRF), monkeys were assigned to 4 groups of one male and one female. Each group was orally administered KDS2010 at 0, 25, 50, or 100 mg/kg/day once a day for 2 weeks. During the test period, general symptoms were monitored, weight and feed intake measured, and ophthalmological tests performed. Clinical pathological tests (hematology, coagulation, blood biochemistry, and urine tests) were also conducted. All animals were autopsied, during which individual macroscopic findings were recorded, organ weights measured, and samples obtained for histopathology.
(§4) In the repeated 4-week oral administration toxicity with 2-week recovery and toxicokinetic test (G218027), monkeys were assigned to 4 groups of 3 males and 3 females. Each group was orally administered KDS2010 at 0, 10, 20, or 40 mg/kg/day once a day for 4 weeks. Toxicity tests were conducted as described for study G217013. For toxicokinetic measurements, blood samples were collected pre-dose (time 0) and at 1, 2, 4, 6, 8, 10, and 24 h after oral administration on the first day (day 1) and the last day (week 4; day 28) of dosing.

[2] = system: cynomolgus monkeys; test: as above; assay type: in vivo, cynomolgus monkey (Macaca fascicularis)
Experimental: as §1, §2, §3, §4

[3] = system: MPTP-induced PD mouse model; test: MPTP mouse model: TH (DAB) and Nissl staining of SNpc and striatum; conditions: MPTP mice; for TH optical density in the striatum / TH-positive cell number in the SNpc: vs MPTP plus vehicle
Experimental: Group allocation and outcome assessment, but not the conduct of experiments and data analysis, were performed in a blinded manner. Throughout the study, confounders were not controlled. An acclimation period of 7 days was allowed for animals to stabilize in a new environment before model induction. […] Treatment drugs were dissolved in 100 μL of water and total dose (in mg) was calculated according to individual body weight (in kg). […] An experiment was halted if body weight decreased by 20% or more after MPTP or 6-hydroxydopamine (6-OHDA) treatment.
The MPTP model was established using the acute regimen of four intraperitoneal (i.p.) injections of MPTP-HCl (M0896, Sigma Aldrich, 2 mg/mL in saline, 20 mg/kg for one injection) at 2-h intervals. All MPTP use and safety precautions were strictly followed as described [18].
Coronal sections for striatum and SNpc were prepared at 30-μm thickness and immunostained using a DAB staining kit (TL-060-QHD, Thermo, MA, USA). […] After washing in PBS 3 times, sections were incubated in Primary Antibody Amplifier Quanto (TA-060-QPB, Thermo) for 5 min, washed again in PBS, incubated in HRP Polymer Quanto for 1 h, washed 4 times in PBS, and dipped for 30 s in a 1:10 mixture of DAB + chromogen and DAB + substrate buffer (K3468, Dako, Denmark). Finally, sections were washed, immersed in mounting medium, and dried.
Every 6th section including the SN was stained with anti-TH and the number of TH-positive neurons counted under low magnification (× 10) from the rostral tip of the SNpc to the caudal end of the substantia nigra pars reticulate (SNpr). […] The total number of neurons per section was estimated according to the optical fractionator formula. The total number of SNpc neurons in a hemisphere was then obtained by multiplying the number counted using Stereo Investigator 11 by the slice interval (six).
Other 30-μm-thick coronal sections from the SNpc were Nissl stained to assess viable cell number. Briefly, slices were stained with 0.1% cresyl violet solution for 3 min, rinsed with distilled water, and placed in a chamber filled with 70% ethanol for 1 min. […] A series of bright field images were obtained using an Olympus microscope. The slices were classified according to AP coordinates and Nissl-positive neurons counted using the counting tool of ImageJ (NIH, MD, USA).

[4] = molecular target: T1, human recombinant MAO-B (hMAO-B) (Homo sapiens, UniProt P27338); test: In vitro MAO-B enzyme assay (H2O2 release, absorbance 570 nm); assay type: biochemical
T1 construct: purchased Sigma Aldrich
T1 sequence (P27338 1-520): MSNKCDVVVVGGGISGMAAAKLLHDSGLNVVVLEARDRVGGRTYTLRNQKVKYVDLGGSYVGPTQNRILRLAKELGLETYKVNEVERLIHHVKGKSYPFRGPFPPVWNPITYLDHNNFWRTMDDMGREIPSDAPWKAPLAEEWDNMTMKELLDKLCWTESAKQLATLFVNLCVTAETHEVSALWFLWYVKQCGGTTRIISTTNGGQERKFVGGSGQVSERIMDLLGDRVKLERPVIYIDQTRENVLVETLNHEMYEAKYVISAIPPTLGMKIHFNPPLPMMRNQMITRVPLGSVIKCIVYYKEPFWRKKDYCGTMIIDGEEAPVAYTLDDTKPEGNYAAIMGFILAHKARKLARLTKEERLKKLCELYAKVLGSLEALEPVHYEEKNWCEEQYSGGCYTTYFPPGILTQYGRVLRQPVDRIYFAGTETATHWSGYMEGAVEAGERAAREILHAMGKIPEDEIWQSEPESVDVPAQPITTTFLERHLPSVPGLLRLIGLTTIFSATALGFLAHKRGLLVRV
Experimental: In brief, human recombinant MAO-A (hMAO-A) and MAO-B (hMAO-B) (Sigma Aldrich) were diluted in 50 mM phosphate buffer (~ 0.3 μg MAO-A protein/well or ~ 2.5 μg MAO-B protein/well), and the test compound was added in DMSO to a final concentration from 0.1 nM to 10 μM. The amount of hydrogen peroxide (H2O2) released after addition of enzyme substrate (p-tyramine for MAO-A or benzylamine for MAO-B) was quantified by measuring the absorbance increase at 570 nm on a microplate reader.

[5] = system: MPTP-induced PD mouse model; test: MPTP mouse model: glial reactivity (GFAP, LCN2, Iba1 staining, western blot); assay type: in vivo; conditions: MPTP mice
Experimental: Throughout the study, confounders were not controlled.
After extensive washing, sections were incubated with corresponding fluorescent secondary antibodies for 2 h and then washed with three times in PBS. Finally, sections were mounted with fluorescent mounting medium (S3023, Dako) and dried. A series of fluorescent images were obtained using an A1 Nikon confocal microscope, and Z-stack images in 3-μm steps were processed for further analysis using ImageJ. Any alteration in brightness or contrast was applied equally to the entire image set.

[6] = system: APP/PS1 transgenic mouse model of AD; parameters: method as in PMID 30906861; conditions: APP/PS1 mice; short-term (3 days) or long-term (30 days) treatment; cited from earlier work

With C[C@H](NCc1ccc(-c2ccc(C(F)(F)F)cc2)cc1)C(N)=O [Compound 18j] the NOAEL at 4 weeks [1] was 40 mg/kg/day, the “maximum dose determined in 2-week DRF study (G217013)” value ([2]; cynomolgus monkeys, 0, 25, 50, 100 mg/kg/day p.o. for 2 weeks) was 50 mg/kg/day and the “adverse effects in toxicity examinations” value ([2]; cynomolgus monkeys, 10, 20, 40 mg/kg/day p.o. for 4 weeks) was “no adverse effects were observed”. For the same compound, the “findings in single-dose escalation toxicity study (N217019)” value ([2]; cynomolgus monkeys, 25, 50 and 100 mg/kg p.o.) was “no general symptoms, clinical pathological, or gross organ pathology”, the “changes in body weight” value ([2]; cynomolgus monkeys, male and female, 10, 20, 40 mg/kg/day p.o. for 4 weeks) was “no significant changes” and the “MPTP-induced reduction in Nissl-positive neurons in SNpc” value ([3]; post-treatment) was “but not post-treatment”. For the same compound, the “TH optical density in the striatum” value ([3]; post-treatment) was “significantly increased”, the “TH-positive cell number in the SNpc” value ([3]; post-treatment) was “significantly increased” and the “MPTP-induced reduction in Nissl-positive neurons in SNpc” value ([3]; pre-treatment) was “partially prevented”. For the same compound, the “TH optical density in the striatum” value ([3]; pre-treatment) was “significantly increased”, the “TH-positive cell number in the SNpc” value ([3]; pre-treatment) was “significantly increased” and the “higher MAO-B inhibitory effect of (S)-stereoisomer than (R)-isomer (19j)” value [4] was “eightfold”. The “GFAP staining intensity in SNpc” value [5] was “significantly reduced”, the “LCN2 expression in GFAP-positive astrocytes” value [5] was “reversed” and the “number of Iba1-positive microglia in SNpc” value [5] was “significantly reduced”. For the same compound, the “reactive transformation of microglia (larger cell bodies, shorter processes)” value [5] was “reversed”, the “volume of GFAP-positive astrocytes in SNpc (hypertrophy)” value [5] was “eliminated” and the “MPTP-induced changes of TH, GFAP and iNOS expression (western blotting)” value ([5]; SNpc) was “all of these changes were reversed”. For the same compound, the memory impairment [6] was “effectively ameliorated”.
